Molecules are shown by their SMILES. pEC50, pIC50: −log10 of the molar value.

In general, pEC50 refers to −log10 of the EC50, conventionally taken in molar units. One may read the pIC50 as the negative decadic logarithm of the IC50, by convention in mol/L.

The target of one experiment is von Hippel-Lindau disease tumor suppressor/Tyrosine-protein kinase receptor UFO (Homo sapiens, UniProt P30530+P40337). In words: PROTAC activity at VHL/AXL in human MDA-MB-231 cells assessed as induction of AXL degradation incubated for 24 hrs by immunoblot analysis. The format is cell-based.
Sequence of von Hippel-Lindau disease tumor suppressor/Tyrosine-protein kinase receptor UFO (P30530 whole entry): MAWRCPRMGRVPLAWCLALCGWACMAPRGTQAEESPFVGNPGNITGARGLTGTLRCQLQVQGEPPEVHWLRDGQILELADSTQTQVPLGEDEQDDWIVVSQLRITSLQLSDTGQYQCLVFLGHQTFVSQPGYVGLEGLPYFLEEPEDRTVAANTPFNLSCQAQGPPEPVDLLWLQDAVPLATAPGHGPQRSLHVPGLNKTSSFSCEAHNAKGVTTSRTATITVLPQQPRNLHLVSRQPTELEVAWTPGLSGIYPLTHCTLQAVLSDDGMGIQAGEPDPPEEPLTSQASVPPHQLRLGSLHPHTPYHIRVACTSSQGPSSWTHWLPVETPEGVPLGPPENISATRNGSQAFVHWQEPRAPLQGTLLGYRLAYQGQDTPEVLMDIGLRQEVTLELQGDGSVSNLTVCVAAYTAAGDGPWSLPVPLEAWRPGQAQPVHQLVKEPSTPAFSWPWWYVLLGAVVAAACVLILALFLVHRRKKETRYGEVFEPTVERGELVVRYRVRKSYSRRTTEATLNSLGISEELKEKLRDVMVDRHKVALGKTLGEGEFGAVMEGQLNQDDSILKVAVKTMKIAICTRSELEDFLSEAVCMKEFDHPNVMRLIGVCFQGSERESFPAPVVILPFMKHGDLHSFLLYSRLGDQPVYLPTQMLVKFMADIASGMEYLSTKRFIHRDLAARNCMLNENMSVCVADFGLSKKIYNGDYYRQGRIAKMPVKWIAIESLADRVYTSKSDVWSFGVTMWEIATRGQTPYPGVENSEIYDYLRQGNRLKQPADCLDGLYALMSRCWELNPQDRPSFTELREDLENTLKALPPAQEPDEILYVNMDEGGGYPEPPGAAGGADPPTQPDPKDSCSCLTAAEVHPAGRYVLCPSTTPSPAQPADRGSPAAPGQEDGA
Sequence of von Hippel-Lindau disease tumor suppressor/Tyrosine-protein kinase receptor UFO (P40337 whole entry): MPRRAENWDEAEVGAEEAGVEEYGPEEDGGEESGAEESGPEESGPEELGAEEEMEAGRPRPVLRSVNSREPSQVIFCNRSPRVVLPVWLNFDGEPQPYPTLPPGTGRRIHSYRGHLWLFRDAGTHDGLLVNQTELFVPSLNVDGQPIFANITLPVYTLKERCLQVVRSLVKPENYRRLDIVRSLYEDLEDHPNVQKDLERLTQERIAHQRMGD
Settings: not given
On the technique in general: Immunoblotting shows a protein as a band on a membrane.
For `CCc1ccc2c(c1)c(=O)c(C(=O)Nc1ccc(Oc3ncnc4cc(OCC(=O)N[C@H](C(=O)N5C[C@H](O)C[C@H]5C(=O)NCc5ccc(-c6scnc6C)cc5)C(C)(C)C)c(OC)cc34)c(F)c1)c(C)n2C`, the pEC50 is less than 5.00.

Consider `CCc1ccc2c(c1)c(=O)c(C(=O)Nc1ccc(Oc3ncnc4cc(OCCCCCCCC(=O)N[C@H](C(=O)N5C[C@H](O)C[C@H]5C(=O)NCc5ccc(-c6scnc6C)cc5)C(C)(C)C)c(OC)cc34)c(F)c1)c(C)n2C`, for which the pEC50 is less than 5.00.

Consider `CCc1ccc2c(c1)c(=O)c(C(=O)Nc1ccc(Oc3ncnc4cc(OCCCC(=O)N[C@H](C(=O)N5C[C@H](O)C[C@H]5C(=O)NCc5ccc(-c6scnc6C)cc5)C(C)(C)C)c(OC)cc34)c(F)c1)c(C)n2C`, for which the pEC50 is less than 5.00.

`CCc1ccc2c(c1)c(=O)c(C(=O)Nc1ccc(Oc3ncnc4cc(OCCCCCCCCCCCC(=O)N[C@H](C(=O)N5C[C@H](O)C[C@H]5C(=O)NCc5ccc(-c6scnc6C)cc5)C(C)(C)C)c(OC)cc34)c(F)c1)c(C)n2C`: the pEC50 was less than 5.00.

For `CCc1ccc2c(c1)c(=O)c(C(=O)Nc1ccc(Oc3ncnc4cc(OCCCCCCCCCC(=O)N[C@H](C(=O)N5C[C@H](O)C[C@H]5C(=O)NCc5ccc(-c6scnc6C)cc5)C(C)(C)C)c(OC)cc34)c(F)c1)c(C)n2C`, the pEC50 was less than 5.00.

For `CCc1ccc2c(c1)c(=O)c(C(=O)Nc1ccc(Oc3ncnc4cc(OCCCCCC(=O)N[C@H](C(=O)N5C[C@H](O)C[C@H]5C(=O)NCc5ccc(-c6scnc6C)cc5)C(C)(C)C)c(OC)cc34)c(F)c1)c(C)n2C`, the pEC50 is less than 5.00.

In a further experiment the target is Protein cereblon/Tyrosine-protein kinase receptor UFO (Homo sapiens, UniProt P30530+Q96SW2). In words: PROTAC activity at CRBN/AXL in human MDA-MB-231 cells assessed as induction of AXL degradation incubated for 24 hrs by immunoblot analysis. The experiment is classed as cell-based.
Sequence of Protein cereblon/Tyrosine-protein kinase receptor UFO (P30530 whole entry): as the sequence (P30530 whole entry) above
Sequence of Protein cereblon/Tyrosine-protein kinase receptor UFO (Q96SW2 whole entry): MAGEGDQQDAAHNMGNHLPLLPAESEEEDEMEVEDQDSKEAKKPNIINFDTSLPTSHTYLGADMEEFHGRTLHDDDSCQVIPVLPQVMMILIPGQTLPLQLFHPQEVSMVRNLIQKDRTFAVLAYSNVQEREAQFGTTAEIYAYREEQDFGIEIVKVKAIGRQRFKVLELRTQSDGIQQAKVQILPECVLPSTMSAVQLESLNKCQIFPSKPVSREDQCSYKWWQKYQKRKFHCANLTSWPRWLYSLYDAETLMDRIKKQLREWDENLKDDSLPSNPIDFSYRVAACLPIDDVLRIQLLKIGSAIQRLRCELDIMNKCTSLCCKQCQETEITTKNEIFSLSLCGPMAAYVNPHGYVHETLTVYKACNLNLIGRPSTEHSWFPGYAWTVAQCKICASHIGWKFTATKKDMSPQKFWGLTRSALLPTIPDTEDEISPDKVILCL
Settings: not given
For the compound `CCc1ccc2c(c1)c(=O)c(C(=O)Nc1ccc(Oc3ncnc4cc(OCCCCCC(=O)Nc5cccc6c5C(=O)N(C5CCC(=O)NC5=O)C6=O)c(OC)cc34)c(F)c1)c(C)n2C` (centres undefined), the negative logarithm of the EC50 (pEC50) is less than 5.00.

For the compound `CCc1ccc2c(c1)c(=O)c(C(=O)Nc1ccc(Oc3ncnc4cc(OCCCCCC(=O)Nc5cccc6c5CN(C5CCC(=O)NC5=O)C6=O)c(OC)cc34)c(F)c1)c(C)n2C` (centres undefined), the pEC50 is less than 5.00.

As for `CCc1ccc2c(c1)c(=O)c(C(=O)Nc1ccc(Oc3ncnc4cc(OCCCCCCCCCCCC(=O)Nc5ccc6c(c5)C(=O)N(C5CCC(=O)NC5=O)C6=O)c(OC)cc34)c(F)c1)c(C)n2C` (centres undefined), the pEC50 was less than 5.00.

In the case of `CCc1ccc2c(c1)c(=O)c(C(=O)Nc1ccc(Oc3ncnc4cc(OCC(=O)Nc5ccc6c(c5)C(=O)N(C5CCC(=O)NC5=O)C6=O)c(OC)cc34)c(F)c1)c(C)n2C` (centres undefined), the pEC50 was less than 5.00.

Turning to `CCc1ccc2c(c1)c(=O)c(C(=O)Nc1ccc(Oc3ncnc4cc(OCCCCCCCC(=O)Nc5cccc6c5C(=O)N(C5CCC(=O)NC5=O)C6=O)c(OC)cc34)c(F)c1)c(C)n2C` (centres undefined), the pEC50 was less than 5.00.

Regarding `CCc1ccc2c(c1)c(=O)c(C(=O)Nc1ccc(Oc3ncnc4cc(OCCCCCCCCCCCC(=O)Nc5cccc6c5C(=O)N(C5CCC(=O)NC5=O)C6=O)c(OC)cc34)c(F)c1)c(C)n2C` (centres undefined), the pEC50 was less than 5.00.

In the case of `CCc1ccc2c(c1)c(=O)c(C(=O)Nc1ccc(Oc3ncnc4cc(OCCCCCC(=O)Nc5cccc6c5C(=O)N(C5CCC(=O)NC5=O)C6)c(OC)cc34)c(F)c1)c(C)n2C` (centres undefined), the negative logarithm of the EC50 (pEC50) was less than 5.00.

Consider `CCc1ccc2c(c1)c(=O)c(C(=O)Nc1ccc(Oc3ncnc4cc(OCCCCC(=O)Nc5ccc6c(c5)C(=O)N(C5CCC(=O)NC5=O)C6=O)c(OC)cc34)c(F)c1)c(C)n2C` (centres undefined), for which the pEC50 was less than 5.00.

Regarding `CCc1ccc2c(c1)c(=O)c(C(=O)Nc1ccc(Oc3ncnc4cc(OCC(=O)Nc5cccc6c5C(=O)N(C5CCC(=O)NC5=O)C6=O)c(OC)cc34)c(F)c1)c(C)n2C` (centres undefined), the pEC50 was less than 5.00.

As to `CCc1ccc2c(c1)c(=O)c(C(=O)Nc1ccc(Oc3ncnc4cc(OCCCCCC(=O)Nc5ccc6c(c5)C(=O)N(C5CCC(=O)NC5=O)C6=O)c(OC)cc34)c(F)c1)c(C)n2C` (centres undefined), the pEC50 is 7.40.

`CCc1ccc2c(c1)c(=O)c(C(=O)Nc1ccc(Oc3ncnc4cc(OCCCCC(=O)Nc5cccc6c5C(=O)N(C5CCC(=O)NC5=O)C6=O)c(OC)cc34)c(F)c1)c(C)n2C` (centres undefined): the pEC50 was less than 5.00.

Turning to `CCc1ccc2c(c1)c(=O)c(C(=O)Nc1ccc(Oc3ncnc4cc(OCCCCCC(=O)Nc5ccc6c(c5)C(=O)N(C5CCC(=O)NC5=O)C6)c(OC)cc34)c(F)c1)c(C)n2C` (centres undefined), the pEC50 is less than 5.00.

Consider `CCc1ccc2c(c1)c(=O)c(C(=O)Nc1ccc(Oc3ncnc4cc(OCCCCCCCCCC(=O)Nc5cccc6c5C(=O)N(C5CCC(=O)NC5=O)C6=O)c(OC)cc34)c(F)c1)c(C)n2C` (centres undefined), for which the pEC50 was less than 5.00.

Take `CCc1ccc2c(c1)c(=O)c(C(=O)Nc1ccc(Oc3ncnc4cc(OCCCCCCCC(=O)Nc5ccc6c(c5)C(=O)N(C5CCC(=O)NC5=O)C6=O)c(OC)cc34)c(F)c1)c(C)n2C` (centres undefined): the pEC50 was 6.97.

Consider `CCc1ccc2c(c1)c(=O)c(C(=O)Nc1ccc(Oc3ncnc4cc(OCCCCCCCCCC(=O)Nc5ccc6c(c5)C(=O)N(C5CCC(=O)NC5=O)C6=O)c(OC)cc34)c(F)c1)c(C)n2C` (centres undefined), for which the pEC50 was less than 5.00.

The test system of the next experiment is MDA-MB-231. The experiment can be described thus: Antiproliferative activity against human MDA-MB-231 cells expressing AXL assessed as inhibition of cell growth incubated for 72 hrs by CCK8 assay. The experiment is classed as functional, cell-based. As to conditions: MDA-MB-231, 72 h. On the technique in general: Formazan colour is commonly taken as a measure of viable cells.
Consider `CCc1ccc2c(c1)c(=O)c(C(=O)Nc1ccc(Oc3ncnc4cc(OCCCCCC(=O)Nc5ccc6c(c5)CN(C5CCC(=O)N(C)C5=O)C6=O)c(OC)cc34)c(F)c1)c(C)n2C` (centres undefined), for which the pIC50 is less than 5.30.

Another experiment concerns MDA-MB-436. In words: Antiproliferative activity against human MDA-MB-436 cells expressing AXL assessed as inhibition of cell growth incubated for 72 hrs by CCK8 assay. The experiment is classed as functional, cell-based. As to conditions: MDA-MB-436, 72 h.
Regarding `CCc1ccc2c(c1)c(=O)c(C(=O)Nc1ccc(Oc3ncnc4cc(OCCCCCC(=O)Nc5ccc6c(c5)CN(C5CCC(=O)N(C)C5=O)C6=O)c(OC)cc34)c(F)c1)c(C)n2C` (centres undefined), the pIC50 was less than 5.30.

A further experiment concerns MDA-MB-453. The experiment can be described thus: Antiproliferative activity against human MDA-MB-453 cells assessed as inhibition of cell growth incubated for 72 hrs by CCK8 assay. The experiment is classed as functional, cell-based. As to conditions: MDA-MB-453, 72 h.
For the compound `CCc1ccc2c(c1)c(=O)c(C(=O)Nc1ccc(Oc3ncnc4cc(OCCCCCC(=O)Nc5ccc6c(c5)CN(C5CCC(=O)N(C)C5=O)C6=O)c(OC)cc34)c(F)c1)c(C)n2C` (centres undefined), the pIC50 is less than 5.30.

Values taken from ChEMBL document CHEMBL5316328, “Discovery of AXL Degraders with Improved Potencies in Triple-Negative Breast Cancer (TNBC) Cells” (J Med Chem, 2023).
